Assay results taken from patent US12551500B2, “C6′-substituted locked nucleic acid-modified cap analog and use thereof” (Hangzhou Tianlong Pharmaceutical Co., Ltd., priority 2024, dated 2026).

Experiments:
T7 RNA polymerase = T7 RNA polymerase (Escherichia phage T7, UniProt P00573); assay: Capping rate of in vitro transcribed mRNA by LC-MS; format: biochemical; conditions: difference to compound 14
Procedure: YK-CAP-001 to 006 and compound 14 in Table 1 were respectively used as cap analogs.
During the experiment, the volume of materials required for the system was first calculated, and then sample addition was conducted. The system was first added with sterile enzyme-free water, followed by the sequential addition of 10× buffer, NTPs, and cap analogs, mixed well, and gently centrifuged. Nuclease inhibitors, inorganic pyrophosphatase, T7 RNA polymerase, and linearized DNA templates were then added thereto. The system was mixed well, gently centrifuged, and incubated at 37° C. After 2 hours of incubation, the system was added with 1 U of DNase I and incubated at 37° C. for another 30 minutes. The mRNA precipitate was then washed with 75% ethanol, and after the ethanol was briefly evaporated to dryness, the mRNA was redissolved in sterile enzyme-free water.
(4) The obtained mRNA was subjected to an annealing reaction with a probe.
The annealing reaction was performed in a PCR instrument: 95° C. for 5 minutes; 65° C. for 2 minutes; 55° C. for 2 minutes; 40° C. for 2 minutes; 22° C. for 2 minutes.
(5) Magnetic bead pretreatment and probe binding: 100 μL of magnetic beads was placed on a magnetic frame for pretreatment. The magnetic bead solution was added with 120 μL of sample and incubated at room temperature for 30 minutes with slow mixing.
(6) mRNA splicing and obtaining the 5′ single-strand sequence bound to the probe
The mixture was added with 20 μL of RNase H (5 U/μL) and incubated at 37° C. for 3 hours with mixing every half hour. After incubation, the magnetic beads were washed and then added with 100 μL of 75% methanol heated to 80° C. The mixture was heated to 80° C. on a heating plate, held for 3 minutes, then placed on a magnetic frame to aspirate the supernatant, and dried at room temperature for 45 minutes to a volume of 10 μL using a centrifugal evaporator. The sample was then resuspended in 50 μL of 100 μM EDTA/1% MeOH and ready for LC-MS analysis to determine the capping of RNA in the transcription reaction. Since there is a significant difference in molecular weight between capped and uncapped bases, the capping rate of mRNA transcription initiated by different cap analogs can be determined based on the difference in molecular mass.

[1] = Characterization of lipid nanoparticles encapsulating Fluc-mRNA; format: physicochemical
Procedure: Cationic lipid YK-009 (Beijing Youcare Kechuang Pharmaceutical Technology Co., Ltd.), DSPC (AVT (Shanghai) Pharmaceutical Technology Co., Ltd.), cholesterol (AVT (Shanghai) Pharmaceutical Technology Co., Ltd.), and DMG-PEG2000 were dissolved in ethanol at a molar ratio of 49:10:39.5:1.5, and the mRNA was diluted in 50 mM citrate buffer (pH=4). The ethanol lipid solution was mixed with the Fluc-mRNA aqueous solution prepared from different cap structures at a volume ratio of 1:3 using a microfluidic device at a flow rate of 10 mL/min to prepare LNPs at a weight ratio of total lipid to mRNA of approximately 15:1. The resulting liposomes were diluted to 10-fold volume with PBS, and then ultrafiltered with a 300 KDa ultrafiltration tube to remove ethanol. The volume was then fixed to a certain volume with PBS. Finally, the LNPs were filtered through a 0.2 μm sterile filter to obtain an LNP preparation encapsulating Fluc-mRNA using YK-009/DSPC/cholesterol/DMG-PEG2000 (at a molar ratio of 49:10:39.5:1.5).
The particle size and polydispersity index (PDI) were determined by dynamic light scattering using a Malvern laser particle size analyzer. 10 μL of the liposome solution was taken, diluted to 1 mL with RNase-free deionized water, and added to a sample pool. Each sample was measured in triplicate. The measurement conditions were: a scattering angle of 90° and a temperature of 25° C. The encapsulation efficiency of LNPs was determined using the Quant-iT RiboGreen RNA Quantification Kit (Thermo Fisher Scientific, UK) according to the manufacturer's instructions.

HEK293T cells = assay: Translation efficiency of capped luciferase mRNAs; format: cell-based
Procedure: (1) HEK293T cells were cultured in DMEM medium containing 10% FBS and penicillin/streptomycin at 37° C. with 5% CO2.
(2) Cells in the culture dish were digested and counted, then spread in a 96-well plate at 10,000 cells per well, and cultured overnight until the cells adhered to the wall.
(3) When the cell density reached approximately 80%, transfection was performed by adding 0.5 μg of mRNA sample and Lipofectamine MessengerMAX Transfection Reagent (Invitrogen) per well according to the manufacturer's instructions.
(4) After the transfected cells were cultured at 37° C. with 5% CO2 for 24 hours, the growth medium was removed from the cells to be tested, and the cells were rinsed with PBS. After centrifugation to remove PBS, 50 μL of 1× lysis buffer was added. The cells and all liquid were transferred to a microcentrifuge tube and centrifuged.
(5) 20 μL of sample was taken and added to 100 μL of Dual-Lumi™ II Luciferase Assay Reagent pre-equilibrated to room temperature, and mixed appropriately.
(6) The mixture was incubated at room temperature (approximately 25° C.) for 5 minutes to stabilize the luminescence signal. Chemiluminescence was detected using a multifunctional microplate reader with a function for detecting chemiluminescence, and the data were recorded.

BALB/C mice = assay: In vivo imaging of protein expressed by LNP-carrying Fluc-mRNA in mice; conditions: for Average radiation intensity: female BALB/C mice; for average radiation intensity, times that of N-7413: ratio to N-7413; for average radiation intensity, times that of YK-CAP-001: ratio to YK-CAP-001; for average radiation intensity, times that of YK-CAP-002: ratio to YK-CAP-002; for average radiation intensity, times that of compound 14: ratio to compound 14; for average radiation intensity, times that of m6A: ratio to m6A
Procedure: The LNP preparation containing […] of Fluc-mRNAs transcribed using the cap analogs YK-CAP-001 to 006 in the present disclosure and the cap analogs N-7413, compound 14, and m6A in the prior art was intramuscularly injected into female BALB/C mice aged 4 to 6 weeks and weighing 17 to 19 g. At specific time points after administration (6 hours, 12 hours, 24 hours, 48 hours, 96 hours, and 168 hours), the mice were intraperitoneally injected with fluorescence imaging substrate. The mice were then allowed to move freely for 5 minutes, followed by detection of the average radiation intensity (corresponding to the amount of protein expression) of the protein expressed by LNP-carrying mRNA in the mice using an IVIS Spectrum small-animal in vivo imaging system.

Sequence of T7 RNA polymerase (P00573 whole entry): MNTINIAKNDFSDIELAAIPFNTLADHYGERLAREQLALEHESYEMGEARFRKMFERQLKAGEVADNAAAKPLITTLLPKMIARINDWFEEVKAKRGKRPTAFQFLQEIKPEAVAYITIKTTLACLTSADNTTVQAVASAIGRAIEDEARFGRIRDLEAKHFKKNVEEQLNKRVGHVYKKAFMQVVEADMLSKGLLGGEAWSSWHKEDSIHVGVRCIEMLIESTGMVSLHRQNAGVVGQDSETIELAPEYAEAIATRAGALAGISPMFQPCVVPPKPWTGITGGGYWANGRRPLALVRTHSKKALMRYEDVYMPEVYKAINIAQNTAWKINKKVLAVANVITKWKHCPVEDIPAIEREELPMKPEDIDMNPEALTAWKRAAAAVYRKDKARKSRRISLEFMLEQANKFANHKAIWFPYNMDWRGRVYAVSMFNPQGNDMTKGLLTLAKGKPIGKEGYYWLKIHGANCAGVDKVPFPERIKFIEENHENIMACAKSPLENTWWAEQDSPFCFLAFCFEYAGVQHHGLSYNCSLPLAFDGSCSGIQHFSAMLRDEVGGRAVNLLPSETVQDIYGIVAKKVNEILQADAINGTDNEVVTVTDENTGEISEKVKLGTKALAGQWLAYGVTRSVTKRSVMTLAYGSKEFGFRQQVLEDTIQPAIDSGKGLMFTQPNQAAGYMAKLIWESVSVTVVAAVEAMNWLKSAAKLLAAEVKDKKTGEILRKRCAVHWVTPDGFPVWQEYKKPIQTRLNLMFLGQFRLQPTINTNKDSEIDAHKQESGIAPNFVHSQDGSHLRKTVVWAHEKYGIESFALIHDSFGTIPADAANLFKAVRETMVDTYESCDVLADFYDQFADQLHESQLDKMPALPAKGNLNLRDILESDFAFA

COC1C(OP(=O)([O-])OC[C@H]2O[C@@H](n3cnc4c(=O)[nH]c(N)nc43)C(O)C2O)[C@@H](COP(=O)(O)OP(=O)(O)OP(=O)(O)OC[C@]23O[C@@H]([n+]4cn(C)c5c(=O)[nH]c(N)nc54)C(O[C@H]2CCS(=O)(=O)N(C)C)C3O)O[C@H]1n1cnc2c(N)ncnc21 (stereo partly shown) [YK-CAP-006]
capping rate higher than that of compound 14 (T7 RNA polymerase): 17.6% | Particle size ([1]; LNP (YK-009/DSPC/cholesterol/DMG-PEG2000) encapsulating Fluc-mRNA transcribed using the cap analog): 96.64 nm | PDI ([1]; LNP encapsulating Fluc-mRNA transcribed using the cap analog): 0.029 | EE ([1]; encapsulation efficiency of LNP encapsulating Fluc-mRNA transcribed using the cap analog): 96.3% | relative fluorescence intensity, times that of HN3002 (HEK293T cells; ratio to HN3002): 1.2 times | relative fluorescence intensity, times that of N-7413 (HEK293T cells; ratio to N-7413): 1.3 times | relative fluorescence intensity, times that of YK-CAP-001 (HEK293T cells; ratio to YK-CAP-001): 1.7 times | relative fluorescence intensity, times that of YK-CAP-002 (HEK293T cells; ratio to YK-CAP-002): 1.9 times | relative fluorescence intensity, times that of m6A (HEK293T cells; ratio to m6A): 3.7 times | Average radiation intensity (BALB/C mice; 6 h after intramuscular injection of LNP Fluc-mRNA): 3303900 p/s/cm^2/sr | Average radiation intensity (BALB/C mice; 12 h after intramuscular injection of LNP Fluc-mRNA): 2067750 p/s/cm^2/sr | Average radiation intensity (BALB/C mice; 24 h after intramuscular injection of LNP Fluc-mRNA): 976550 p/s/cm^2/sr | Average radiation intensity (BALB/C mice; 48 h after intramuscular injection of LNP Fluc-mRNA): 798075 p/s/cm^2/sr | Average radiation intensity (BALB/C mice; 96 h after intramuscular injection of LNP Fluc-mRNA): 75840 p/s/cm^2/sr | Average radiation intensity (BALB/C mice; 168 h after intramuscular injection of LNP Fluc-mRNA): 15660 p/s/cm^2/sr | average radiation intensity, times that of N-7413 (BALB/C mice; at 6 hours): 1.2 times | average radiation intensity, times that of YK-CAP-001 (BALB/C mice; at 6 hours): 1.9 times | average radiation intensity, times that of YK-CAP-002 (BALB/C mice; at 6 hours): 2.3 times | average radiation intensity, times that of compound 14 (BALB/C mice; at 6 hours): 1.3 times | average radiation intensity, times that of m6A (BALB/C mice; at 6 hours): 1.8 times | average radiation intensity, times that of N-7413 (BALB/C mice; at 96 hours): 1.1 times | average radiation intensity, times that of YK-CAP-001 (BALB/C mice; at 96 hours): 1.7 times | average radiation intensity, times that of YK-CAP-002 (BALB/C mice; at 96 hours): 3.6 times | average radiation intensity, times that of compound 14 (BALB/C mice; at 96 hours): 1.3 times | average radiation intensity, times that of m6A (BALB/C mice; at 96 hours): 2.3 times
